The source of these data is patent US8865716B2, “Dihydropteridinones II” (Boehringer Ingelheim International GmbH, priority 2013, dated 2014).

The assay has as its system Aβ42. Kind of assay: Aβ42 production in H4 neuroglioma cells stably expressing human APP695 (Meso Scale Discovery electrochemiluminescence assay). In kind it is cell-based. The note with it: higher ratio = more specific inhibition of Aβ42 over Aβ total. On the procedure:
Cells were plated out to near confluency. The compounds to be tested were received as 10 mM stocks in 100% DMSO. A dilution series was initially generated in 100% DMSO and then diluted 200-fold in cell culture media such that the tested concentration range was 30 μM to 0.1 nM and the final DMSO concentration was 0.5%. The diluted compounds were incubated with the cells for 22 hours in an incubator at 37° C. and 5% CO2. Aβ42 as well as Aβ total levels were then measured post-incubation from the supernatant of the cells. Aβ42 levels were determined using a specific electrochemiluminescence assay provided by Meso Scale Discovery (Catalog #L21CA-1) according to the manufacturer's protocol. Aβ total levels were likewise determined using a specific electrochemiluminescence assay provided by Meso Scale Discovery (Catalog #L21ZA-1) according to the manufacturer's protocol.
In order to absolutely define the described compounds as modulators of γ-Secretase as opposed to simply inhibitors of γ-Secretase, measurements of not only Aβ42 but also Aβ total are performed.
For `COc1cc(Nc2ncc3c(n2)N(C)C2(CC2)C(=O)N3CC(F)(F)F)ccc1-n1cnc(C)c1` [Example 44], the “Ratio Aβ(total)/Aβ42 (Aβ total IC50/Aβ42 IC50)” value (shortened to “Ratio Aβ(total)/Aβ42”) came to 50.
Consider `Cc1ncc(-c2ccc(Nc3ncc4c(n3)N(C)C3(CCOCC3)C(=O)N4C)cn2)o1` [Example 3], for which the “Ratio Aβ(total)/Aβ42” value is on record as over 6.
Take `COc1cc(Nc2ncc3c(n2)N(C)C2(CC2)C(=O)N3CC(F)(F)F)cnc1-n1cnc(C)c1` [Example 50]: the “Ratio Aβ(total)/Aβ42” value is listed as over 147.
Consider `COc1cc(Nc2ncc3c(n2)N(C)C2(CCC2)C(=O)N3CC(F)(F)F)ccc1-c1cnc(C)o1` [Example 45], for which the “Ratio Aβ(total)/Aβ42” value is over 517.
Regarding `COc1cc(Nc2ncc3c(n2)N(C)C2(CCOC2)C(=O)N3C)ccc1-n1cnc(C)c1` (stereo not shown) [Example 6], the “Ratio Aβ(total)/Aβ42” value is over 136.
For `COc1cc(Nc2ncc3c(n2)N(C)C2(CCOC2)C(=O)N3C)ccc1-c1cnc(C)o1` (stereo not shown) [Example 7], the “Ratio Aβ(total)/Aβ42” value is over 315.
Turning to `COc1cc(Nc2ncc3c(n2)N(C)C2(CCOC2)C(=O)N3CC2CCOCC2)ccc1-n1cnc(C)c1` (stereo not shown) [Example 26], the “Ratio Aβ(total)/Aβ42” value is 46.
Turning to `COc1cc(Nc2ncc3c(n2)N(C)C2(CC2)C(=O)N3CC(F)F)ccc1-n1cnc(C)c1` [Example 52], the “Ratio Aβ(total)/Aβ42” value amounted to 61.
`COc1cc(Nc2ncc3c(n2)N(C)C2(COCCOC2)C(=O)N3C)ccc1-n1cnc(C)c1` [Example 27]: the “Ratio Aβ(total)/Aβ42” value was over 112.
Under `COc1cc(Nc2ncc3c(n2)N(C)C2(CCOCC2)C(=O)N3C)ccc1-c1cnc(C)o1` [Example 1] stands over 244; under `COc1cc(Nc2nc3c(c(C(F)(F)F)n2)N(C)C(=O)C2(CCOCC2)N3C)ccc1-n1cnc(C)c1` [Example 37d], over 36.
Regarding `COc1cc(Nc2ncc3c(n2)N(C)C2(CCOCC2)C(=O)N3Cc2ccc(F)cc2F)ccc1-n1cnc(C)c1` [Example 37j], the “Ratio Aβ(total)/Aβ42” value is listed as 57.
Next, `COc1cc(Nc2ncc3c(n2)NC2(CCOC2)C(=O)N3CCC(C)C)ccc1-n1cnc(C)c1` (stereo not shown) [Example 29]: 39.
Next, `COc1cc(Nc2ncc3c(n2)N(C)C2(CCCCOC2)C(=O)N3C)ccc1-n1cnc(C)c1` (stereo not shown) [Example 39]: 91; `COCCN1C(=O)C2(CCOC2)N(C)c2nc(Nc3ccc(-n4cnc(C)n4)c(OC)c3)ncc21` (stereo not shown) [Example 15]: over 15.
Next, `COc1cc(Nc2ncc3c(n2)N(C)C2(CCOC2)C(=O)N3C2CC2)ccc1-n1cnc(C)c1` (stereo not shown) [Example 37g]: 58; `COc1cc(Nc2ncc3c(n2)N(C)C2(CCOCC2)C(=O)N3c2ccc(F)cc2)ccc1-n1cnc(C)c1` [Example 37f]: 55; `COc1cc(Nc2ncc3c(n2)N(C)C2(CCOC2)C(=O)N3C(C)c2ccccn2)ccc1-n1cnc(C)c1` (stereo not shown) [Example 37k]: 88.
`COc1cc(Nc2ncc3c(n2)N(C)C2(CCOCC2)C(=O)N3C)ccc1-n1cnc(C)c1` [Example 2]: the “Ratio Aβ(total)/Aβ42” value is 89.
Turning to `CCc1nc(Nc2cnc(-n3cnc(C)c3)c(OC)c2)nc2c1N(C)C(=O)C1(CC1)N2C` [Example 37i], the “Ratio Aβ(total)/Aβ42” value is 54.
Next, `COc1cc(Nc2ncc3c(n2)N(C)C2(CCCOCC2)C(=O)N3C)ccc1-n1cnc(C)c1` (stereo not shown) [Example 42]: 51.
Next, `COCCN1C(=O)C2(CCOC2)N(C)c2nc(Nc3ccc(-n4cnc(C)c4)c(OC)c3)ncc21` (stereo not shown) [Example 16]: 88; `COc1cc(Nc2ncc3c(n2)N(C)C2(CCOC2)C(=O)N3CC(F)(F)F)ccc1-n1cnc(C)c1` (stereo not shown) [Example 37e]: 82; `COc1cc(Nc2ncc3c(n2)N(C)C2(COC2)C(=O)N3C)ccc1-n1cnc(C)c1` [Example 41]: over 25.
Consider `COc1cc(Nc2ncc3c(n2)N(C)C2(CCOC2)C(=O)N3CC(F)F)ccc1-n1cnc(C)c1` (stereo not shown) [Example 37h], for which the “Ratio Aβ(total)/Aβ42” value was 85.
Under `Cc1ncc(-c2ccc(Nc3ncc4c(n3)N(C)C3(CCOC3)C(=O)N4C)cn2)o1` (stereo not shown) [Example 8] stands over 10; under `CCc1nc(Nc2ccc(-n3cnc(C)c3)c(C#N)c2)nc2c1N(C)C(=O)C1(CCOC1)N2C` (stereo not shown) [Example 35], 180; under `COc1cc(Nc2ncc3c(n2)N(C)C2(CCOCC2)C(=O)N3C2CC2)ccc1-n1cnc(C)c1` [Example 37b], 47.
Under `COCCN1C(=O)C2(CCOCC2)N(C)c2nc(Nc3ccc(-n4cnc(C)c4)c(OC)c3)ncc21` [Example 11] stands 26; under `COCCN1C(=O)C2(CCOCC2)N(C)c2nc(Nc3ccc(-c4ccnc(C)c4)cc3)ncc21` [Example 12], 11.
On to `COc1cc(Nc2ncc3c(n2)N(C)C2(CC4CCC2C4)C(=O)N3C)cnc1-n1cnc(C)c1` (stereo not shown) [Example 49], for which the “Ratio Aβ(total)/Aβ42” value was determined as 69.
Next, `COCCN1c2nc(Nc3ccc(-n4cnc(C)c4)c(OC)c3)nc(CC(C)C)c2N(C)C(=O)C12CCOC2` (stereo not shown) [Example 30]: 96; `COc1cc(Nc2ncc3c(n2)N(C)C2(CCOCC2)C(=O)N3)ccc1-n1cnc(C)c1` [Example 9]: over 101.
Next, `COc1cc(Nc2ncc3c(n2)N(C)C2(COCCOC2)C(=O)N3)ccc1-n1cnc(C)c1` [Example 25]: 91; `COc1cc(Nc2ncc3c(n2)NC2(CCOC2)C(=O)N3C2COC2)ccc1-n1cnc(C)c1` (stereo not shown) [Example 28]: over 3.
Turning to `COc1cc(Nc2ncc3c(n2)NC2(CCOC2)C(=O)N3CC2CCOCC2)ccc1-n1cnc(C)c1` (stereo not shown) [Example 22], the “Ratio Aβ(total)/Aβ42” value was over 9.
Under `COc1cc(Nc2ncc3c(n2)NC2(CCOC2)C(=O)N3C)ccc1-n1cnc(C)c1` (stereo not shown) [Example 20] stands over 90; under `Cc1ncc(-c2ccc(Nc3nc(C)c4c(n3)N(C)C3(CCOCC3)C(=O)N4C)cn2)o1` [Example 5], over 9; under `COc1cc(Nc2ncc3c(n2)N(C)C2(CC2)C(=O)N3C2COC2)ccc1-n1cnc(C)c1` [Example 47], 98.
Under `COc1cc(Nc2ncc3c(n2)N(C)C2(CC2)C(=O)N3c2ccc(F)cc2)ccc1-n1cnc(C)c1` [Example 46] stands over 306; under `COc1cc(Nc2ncc3c(n2)N(C2CCCC2)C2(CC2)C(=O)N3C)ccc1-n1cnc(C)c1` [Example 38], over 15; under `COc1cc(Nc2ncc3c(n2)N(CC2CCOCC2)C2(CCOC2)C(=O)N3CC2CCOCC2)ccc1-n1cnc(C)c1` (stereo not shown) [Example 24], over 10.
Under `COc1cc(Nc2nc3c(c(C(C)(C)O)n2)N(C)C(=O)C2(CCOC2)N3C)ccc1-c1cnc(C)o1` (stereo not shown) [Example 40] stands over 62; under `COCCN1C(=O)C2(CCOCC2)N(C)c2nc(Nc3ccc(-n4cnc(C)n4)c(OC)c3)ncc21` [Example 13], over 13; under `CCCN1C(=O)C2(CCOCC2)N(C)c2nc(Nc3ccc(-n4cnc(C)c4)c(OC)c3)ncc21` [Example 17], 65.
Take `COCCN1C(=O)C2(CCOC2)N(C)c2nc(Nc3ccc(-c4ccnc(C)c4)cc3)ncc21` (stereo not shown) [Example 14]: the “Ratio Aβ(total)/Aβ42” value is over 27.
Take `COc1cc(Nc2ncc3c(n2)N(C)C2(CCOC2)C(=O)N3)ccc1-n1cnc(C)c1` (stereo not shown) [Example 10]: the “Ratio Aβ(total)/Aβ42” value turned out to be 46.
Under `COc1cc(Nc2ncc3c(n2)N(C)C2(CCOCC2)C(=O)N3c2cc(F)cc(F)c2)ccc1-n1cnc(C)c1` [Example 37c] stands 75; under `Cc1ncc(-c2ccc(Nc3ncc4c(n3)N(C)C3(CCc5ccccc5C3)C(=O)N4C)cn2)o1` (stereo not shown) [Example 37], 29.
Under `COCCN1c2nc(Nc3ccc(-c4cnc(C)o4)c(OC)c3)nc(CC(C)C)c2N(C)C(=O)C12CCOC2` (stereo not shown) [Example 31] stands 47; under `COc1cc(Nc2ncc3c(n2)N(C)C2(CCOC2)C(=O)N3c2ccc(C(F)(F)F)cn2)ccc1-n1cnc(C)c1` (stereo not shown) [Example 48], 22; under `Cc1cn(-c2ccc(Nc3ncc4c(n3)NC3(CCOC3)C(=O)N4C)cc2C#N)cn1` (stereo not shown) [Example 19], over 257.
